Assay results taken from patent US20200290950A1, “ALKAMIDE COMPOUNDS AND USES THEREOF” (NORTH CAROLINA STATE UNIVERSITY, priority 2017, published 2020).

What was measured:
BMMCs = assay: Toluidine blue staining of granules in BMMCs; type: cell-based, mouse
Method: FIG. 2. A15 inhibits granule release from BMMCs. […] BMMCs were cytocentrifuged onto a glass slide, fixed, stained with toluidine blue (1%, pH<1) for 30 min, and washed before observing microscopically. Images were acquired at 400× magnification and are representative.

[1] = TDI-induced scratching bouts (itch); type: in vivo, mouse
Text: (§1) Several different model systems were utilized for these experiments. In one model, dorsal root ganglia were obtained from mice and the neurons cultured in vitro. The neurons were then stimulated in the presence/absence of A15 and YM8-85 and the calcium responses monitored by fluorescence microscopy. In the second model, the alkamides were applied to mouse skin in mineral oil. The reactions of these mice to heat, cold, and tactile stimulation was then compared with mice that had not received treatment with A15. In a third model, mice were sensitized to the chemical compound toluene-2,4-diisocyanate (TDI). TDI is an industrial chemical which causes hypersensitive skin lesions and itching in exposed humans and animals. The physiological response to TDI is complex involving type 2 T lymphocytes, cytokines, mast cells, and neurons. Alkamides were applied to sensitized animals and then ear swelling and bouts of scratching were monitored.
The effects of A15 on TDI-induced itch. The itch response was also monitored in mice sensitized and treated with TDI. Treated mice were video recorded and the number of scratching bouts quantified by an observer.

[2] = Paw withdrawal latency to heat, cold and touch after topical administration; type: in vivo; conditions: topical in mineral oil on mouse paws
Method: FIG. 12. Antinociceptive effect of topical administration of alkamide A15. Measured paw withdrawal latency to Hargreave's (A) cold assay using dry ice (B) and touch using von-Frey (C). Data were analyzed using parametric evaluation (AUC).
as §1
In vivo responses to painful stimuli. A15 was tested with mice to determine whether the in vitro inhibitory responses noted in FIG. 11 are also seen in vivo. A15 was mixed in mineral oil and added to mouse paws prior to stimulation with heat, cold, or touch. […] Sensations of touch are mediated by distinct families of mechanoreceptors which are apparently unaffected by A15.

Jurkat T cells = assay: Fluo-4 calcium assay, Jurkat cells; type: cell-based; conditions: 1 μM A23187, 100 μM A15, at 1 min
Method: FIGS. 4A-4D. A15 inhibits A23187-stimulated calcium influx in RAW 264.7 and Jurkat cells. RAW 264.7 (FIG. 4A-4B) or Jurkat cells (FIG. 4C-4D) were loaded with fluo-4 AM using the Fluo-4 AM Direct™ Calcium Assay Kit and fluorescence was measured on a microplate reader. Cells were stimulated with 1 μM A23187 in combination with vehicle only or 100 μM A15. Bar graphs represent the means±SEM of the Δ in RFU's at 1 min post-A23187 stimulation from 3 independent experiments. Statistical analysis was performed using an unpaired Student's t-test, *p<0.05.
RBL-2H3, BMMC, RAW 264.7, or Jurkat cells were plated in clear-bottom, black, 96-well plates (BioExpress, Kaysville, Utah) and incubated overnight with media only or media containing IgE anti-DNP. […] Prior to stimulation, baseline fluorescent readings were measured from triplicate wells in 5 s intervals for 1 min using a Synergy HT microplate reader with 485/20 nm excitation and 528/20 nm emission filters. Cells were then treated with either 1 μM A23187 or 50 ng/mL DNP-BSA prepared in calcium- and magnesium-containing or calcium- and magnesium-free HBSS with 20 mM HEPES, and fluorescence was measured in 10 s intervals for 2 min. […] The average baseline fluorescence of each well was subtracted from the stimulated fluorescent values to calculate the change (Δ) in RFU's and graphed as shown.

RBL-2H3 cells = assay: LDH cytotoxicity assay; type: cell-based, rat; conditions: overnight treatment
Method: FIG. 7. A15 is not cytotoxic to RBL-2H3 cells. RBL-2H3 cells were plated and incubated overnight prior to stimulation. Cells were treated overnight with the indicated concentrations of A15 10 μg/mL cycloheximide as a positive control. Supernatants were collected and analyzed for LDH release using the Pierce LDH Cytotoxicity Kit. […] Statistical analysis was performed using a one-way ANOVA with Dunnett's post-hoc test, ***p<0.001.
RBL-2H3 cells were seeded into 96-well plates and incubated overnight prior to treatment with a range of A15 concentrations or 10 μg/mL cycloheximide. Supernatants were collected after 18 hr and analyzed for lactate dehydrogenase (LDH) activity using the commercially available Pierce LDH Cytotoxicity Assay Kit according to the manufacturer's instructions (Thermo Fisher Scientific). Briefly, in a 96-well plate, 50 μL of supernatant were incubated with 50 μL of reaction mixture containing a tetrazolium salt that is reduced to formazan in the presence LDH for 30 min protected from light. 50 μL of stop solution was added, and the absorbance was read at 490 nm with absorbance at 690 nm subtracted to remove background absorbance. LDH release from vehicle treated cells was used to determine spontaneous LDH release. Additionally, lysis buffer was used to determine maximum LDH release.

## CCCCCCC/C=C/C=C/C(=O)NCC(C)C [A15, (2E,4E)-N-Isobutyldodeca-2,4-dienamide]
BMMCs; 100 μM A15 alone, 30 min
  toluidine blue staining, compound alone: did not noticeably affect staining
BMMCs; 100 μM A15 with 1 μM A23187, 30 min
  A23187-induced reduction of toluidine blue staining (granule release): blocked
[1]; higher dose 1.0%
  scratching bouts in TDI treated mice: strong significant inhibition of scratching
[1]; lower dose 0.1%
  scratching bouts in TDI treated mice: strong significant inhibition of scratching
[2]
  paw withdrawal latency to cold (dry ice): increased withdrawal latency
  paw withdrawal latency to heat (Hargreave's): increased withdrawal latency
  touch latency (von-Frey): did not affect touch latency
Jurkat T cells
  suppression of calcium influx: 43.6%
RBL-2H3 cells
  cytotoxic activity (LDH release): no significant cytotoxic activity
